Paper PMC10053710, “Influence of Lipidation Pattern of the KR12 Fragment of Peptide LL-37 on Its Antibacterial and Hemolytic Activities” (International Journal of Molecular Sciences, 2023)
Values after ≈ are worked out from the molar mass of the structure shown. Like-named read-outs stand apart in the source and are kept apart here. Where a SMILES comes first, the peptide text is derived from it. Where no end group is shown, it is not given here. The star is where a group is joined. Benzoyl(4-Ph) = O=C(c1ccc(-c2ccccc2)cc1)*; Butanoyl(4-Ph) = O=C(CCCc1ccccc1)*; Hydrocinnamoyl = O=C(CCc1ccccc1)*; Octanoyl = CCCCCCCC(=O)*; X2 = O=C(C#Cc1ccccc1)*; Butyryl = CCCC(=O)*; Bz = O=C(c1ccccc1)*

Experiments:
[1] = tested on: Pseudomonas aeruginosa ATCC 9027; assay type: cell-based
Description: (§1) Tests of the antibacterial activity were carried out as we just described. Briefly, for assays, the following strains of ESKAPE bacteria were chosen: Acinetobacter baumannii ATCC BAA-1605, Enterococcus faecium ATCC 700221, Klebsiella aerogenes ATCC 13048 (formerly Enterobacter aerogenes), Klebsiella pneumoniae ATCC 700603, and Pseudomonas aeruginosa ATCC 9027. Moreover, the reference strains of Staphylococcus aureus were used: S. aureus ATCC 25923, S. aureus ATCC 6538, S. aureus ATCC 33591 (MRSA), S. aureus ATCC 9144, and S. aureus ATCC 12598. Before experiments, all the strains were stored at −80 °C in Roti®-Store cryo vials (Carl Roth GmbH, Karlsruhe, Germany). To evaluate the activity of the compounds, bacteria were transferred into fresh Mueller–Hinton medium (Becton Dickinson, Warszawa, Poland) and incubated for 24 h at 37 °C. In the next step, bacterial inoculums were seeded on Mueller–Hinton agar plates (BioMaxima SA, Lublin, Poland) and incubated again for 24 h. The MIC values were determined using the broth microdilution method according to the Clinical and Laboratory Standards Institute Protocol. The initial inoculums of bacteria (0.5 × 10^5 colony forming units (CFU)/mL) prepared in Mueller–Hinton broth were exposed to the ranging concentrations of peptides (1–512 µg/mL). The experiments were conducted on 96-well microtiter plates, with a final volume of 100 µL. The inoculum densities were checked spectrophotometrically (Multiskan™ GO Microplate Spectrophotometer, Thermo Scientific, Waltham, MA, USA) at 600 nm. The results were read after incubation for 18 h at 37 °C. The MIC values were the lowest concentration at which a visible growth of microorganisms was inhibited. All experiments were conducted in triplicate. Moreover, positive (growth) and negative (sterility) controls were included.

[2] = tested on: Klebsiella aerogenes ATCC 13048; assay type: cell-based
Description: as §1

[3] = tested on: Enterococcus faecium ATCC 700221; assay type: cell-based
Description: as §1

[4] = tested on: Klebsiella pneumoniae ATCC 700603; assay type: cell-based
Description: as §1

[5] = tested on: human red blood cells (hRBCs); assay: Hemolysis assay; conditions: for MHC5 (minimum hemolytic concentration causing 5% hemolysis of hRBCs): 4% (v/v) erythrocytes in PBS, peptides 1–512 µg/mL, 1 h at 37 °C, hemoglobin at 540 nm
Description: To facilitate a comparison of hemolytic activity between the analogs, MHC5 values were determined. MHC5 is the minimum hemolytic concentration of the compounds that caused the 5% hemolysis of hRBCs.
Briefly, the fresh hRBCs with EDTA as anticoagulant were rinsed three times with PBS through centrifugation at 800× g for 10 min and resuspended in PBS. The serial dilution of peptides (1–512 µg/mL) was prepared in PBS on 96-well plates. Then, the stock RBCs solution was added to the plates to reach a final volume of 100 µL with a 4% concentration of erythrocytes (v/v). The control wells for 0 (RBCs in PBS) and 100% (RBCs in 1% Triton-X 100) hemolysis were also prepared. Then, the plates were incubated for 1 h at 37 °C and centrifuged at 800× g for 10 min at 4 °C (Sorvall ST 16R Centrifuge, Thermo Scientific, Waltham, MA, USA). After centrifugation, the supernatant was carefully transferred to new microtiter plates and the release of hemoglobin was measured at 540 nm (Multiskan™ GO Microplate Spectrophotometer, Thermo Scientific, Waltham, MA, USA). The percentage of hemolysis was calculated based on wells with 100% hemolysis.

[6] = tested on: S. aureus ATCC 25923; assay type: cell-based, Staphylococcus aureus
Description: as §1

[7] = tested on: S. aureus ATCC 33591 (MRSA); assay type: cell-based, Staphylococcus aureus
Description: as §1

[8] = tested on: S. aureus ATCC 12598; assay type: cell-based, Staphylococcus aureus
Description: as §1

[9] = tested on: S. aureus ATCC 6538; assay type: cell-based, Staphylococcus aureus
Description: as §1

[10] = tested on: S. aureus ATCC 9144; assay type: cell-based, Staphylococcus aureus
Description: as §1

[11] = Mueller–Hinton broth, 0.5 × 10^5 CFU/mL, peptides 1–512 µg/mL, 18 h at 37 °C, triplicate
[12] = 100% = 1% Triton-X 100, ≥ means less than 5% hemolysis up to 512 µg/mL

| Compound | MHC5 (minimum hemolytic concentration causing 5% hemolysis of hRBCs) [5, 12] | MIC P. aeruginosa ([1]; ATCC 9027, 18 h) | MIC K. aerogenes ([2]; ATCC 13048, 18 h) | MIC E. faecium ([3]; ATCC 700221, 18 h) | MIC K. pneumoniae ([4]; ATCC 700603, 18 h) | MIC A. baumannii (18 h) | MIC S. aureus 25923 ([6]; ATCC 25923, 18 h) | MIC S. aureus 33591 ([7]; ATCC 33591, 18 h) | MIC S. aureus 12598 ([8]; ATCC 12598, 18 h) | MIC S. aureus 6538 ([9]; ATCC 6538, 18 h) | MIC S. aureus 9144 ([10]; ATCC 9144, 18 h) | also measured |
| --- | --- | --- | --- | --- | --- | --- | --- | --- | --- | --- | --- | --- |
| CC[C@H](C)[C@H](NC(=O)[C@H](CCCNC(=N)N)NC(=O)[C@H](CCC(N)=O)NC(=O)[C@@H](NC(=O)[C@@H](NC(=O)[C@H](CCCNC(=N)N)NC(=O)[C@H](CCCCN)NC(=O)c1ccccc1)[C@@H](C)CC)C(C)C)C(=O)N[C@@H](CCCCN)C(=O)N[C@@H](CC(=O)O)C(=O)N[C@@H](Cc1ccccc1)C(=O)N[C@@H](CC(C)C)C(=O)N[C@@H](CCCNC(=N)N)C(N)=O [XV, Benzoic acid-KR12-NH2] (Bz-KRIVQRIKDFLR-NH2) | ≥512 µg/mL | – | – | – | – | – | – | – | – | – | – | MIC P. aeruginosa [1, 11]: 128 µg/mL (≈ 76.4 µM); MIC K. aerogenes [2, 11]: 64 µg/mL (≈ 38.2 µM); MIC E. faecium [3, 11]: 8 µg/mL (≈ 4.78 µM); MIC K. pneumoniae [4, 11]: 64 µg/mL (≈ 38.2 µM); MIC A. baumannii [11]: 32 µg/mL (≈ 19.1 µM); MIC S. aureus 25923 [6, 11]: 64 µg/mL (≈ 38.2 µM); MIC S. aureus 33591 ([7]; MRSA, Mueller–Hinton broth, 0.5 × 10^5 CFU/mL, peptides 1–512 µg/mL, 18 h at 37 °C, triplicate): 64 µg/mL (≈ 38.2 µM); MIC S. aureus 12598 [8, 11]: 32 µg/mL (≈ 19.1 µM); MIC S. aureus 6538 [9, 11]: 8 µg/mL (≈ 4.78 µM); MIC S. aureus 9144 [10, 11]: 32 µg/mL (≈ 19.1 µM) |
| CC[C@H](C)[C@H](NC(=O)[C@H](CCCNC(=N)N)NC(=O)[C@H](CCC(N)=O)NC(=O)[C@@H](NC(=O)[C@@H](NC(=O)[C@H](CCCNC(=N)N)NC(=O)[C@H](CCCCN)NC(=O)CCCc1ccccc1)[C@@H](C)CC)C(C)C)C(=O)N[C@@H](CCCCN)C(=O)N[C@@H](CC(=O)O)C(=O)N[C@@H](Cc1ccccc1)C(=O)N[C@@H](CC(C)C)C(=O)N[C@@H](CCCNC(=N)N)C(N)=O [XVIII, 4-Phenylbutanoic acid-KR12-NH2] ({Butanoyl(4-Ph)}-KRIVQRIKDFLR-NH2) | – | 64 µg/mL (≈ 37.3 µM) | 32 µg/mL (≈ 18.6 µM) | 8 µg/mL (≈ 4.66 µM) | 16 µg/mL (≈ 9.32 µM) | 4 µg/mL (≈ 2.33 µM) | 32 µg/mL (≈ 18.6 µM) | 16 µg/mL (≈ 9.32 µM) | 32 µg/mL (≈ 18.6 µM) | 32 µg/mL (≈ 18.6 µM) | 8 µg/mL (≈ 4.66 µM) | MHC5 (minimum hemolytic concentration causing 5% hemolysis of hRBCs) ([5]; fresh batch of blood (footnote a)): 128 ^a µg/mL |
| KRIVQRIKDFLR-NH2 [I, KR12-NH2] | ≥512 µg/mL | 128 µg/mL | >512 µg/mL | 128 µg/mL | >512 µg/mL | 256 µg/mL | >512 µg/mL | >512 µg/mL | >512 µg/mL | 512 µg/mL | >512 µg/mL | – |
| CC[C@H](C)[C@H](NC(=O)[C@H](CCCNC(=N)N)NC(=O)[C@H](CCC(N)=O)NC(=O)[C@@H](NC(=O)[C@@H](NC(=O)[C@H](CCCNC(=N)N)NC(=O)[C@H](CCCCN)NC(=O)CCc1ccccc1)[C@@H](C)CC)C(C)C)C(=O)N[C@@H](CCCCN)C(=O)N[C@@H](CC(=O)O)C(=O)N[C@@H](Cc1ccccc1)C(=O)N[C@@H](CC(C)C)C(=O)N[C@@H](CCCNC(=N)N)C(N)=O [XVII, 3-Phenylpropionic acid-KR12-NH2] (Hydrocinnamoyl-KRIVQRIKDFLR-NH2) | 256 µg/mL | 64 µg/mL (≈ 37.6 µM) | 64 µg/mL (≈ 37.6 µM) | 4 µg/mL (≈ 2.35 µM) | 32 µg/mL (≈ 18.8 µM) | 32 µg/mL (≈ 18.8 µM) | 16 µg/mL (≈ 9.39 µM) | 32 µg/mL (≈ 18.8 µM) | 16 µg/mL (≈ 9.39 µM) | 8 µg/mL (≈ 4.7 µM) | 16 µg/mL (≈ 9.39 µM) | – |
| CC[C@H](C)[C@H](NC(=O)[C@H](CCCNC(=N)N)NC(=O)[C@H](CCC(N)=O)NC(=O)[C@@H](NC(=O)[C@@H](NC(=O)[C@H](CCCNC(=N)N)NC(=O)[C@H](CCCCN)NC(=O)c1ccc(-c2ccccc2)cc1)[C@@H](C)CC)C(C)C)C(=O)N[C@@H](CCCCN)C(=O)N[C@@H](CC(=O)O)C(=O)N[C@@H](Cc1ccccc1)C(=O)N[C@@H](CC(C)C)C(=O)N[C@@H](CCCNC(=N)N)C(N)=O [XXI, 4-Phenylbenzoic acid-KR12-NH2] ({Benzoyl(4-Ph)}-KRIVQRIKDFLR-NH2) | 32 µg/mL | 16 µg/mL (≈ 9.14 µM) | 4 µg/mL (≈ 2.28 µM) | 2 µg/mL (≈ 1.14 µM) | 8 µg/mL (≈ 4.57 µM) | 8 µg/mL (≈ 4.57 µM) | 8 µg/mL (≈ 4.57 µM) | 4 µg/mL (≈ 2.28 µM) | 4 µg/mL (≈ 2.28 µM) | 2 µg/mL (≈ 1.14 µM) | 4 µg/mL (≈ 2.28 µM) | – |
| CC[C@H](C)[C@H](NC(=O)[C@H](CCCNC(=N)N)NC(=O)[C@H](CCC(N)=O)NC(=O)[C@@H](NC(=O)[C@@H](NC(=O)[C@H](CCCNC(=N)N)NC(=O)[C@H](CCCCN)NC(=O)C#Cc1ccccc1)[C@@H](C)CC)C(C)C)C(=O)N[C@@H](CCCCN)C(=O)N[C@@H](CC(=O)O)C(=O)N[C@@H](Cc1ccccc1)C(=O)N[C@@H](CC(C)C)C(=O)N[C@@H](CCCNC(=N)N)C(N)=O [XX, Phenylpropiolic acid-KR12-NH2] (X2-KRIVQRIKDFLR-NH2) | 256 µg/mL | 64 µg/mL (≈ 37.7 µM) | 16 µg/mL (≈ 9.42 µM) | 4 µg/mL (≈ 2.35 µM) | 32 µg/mL (≈ 18.8 µM) | 32 µg/mL (≈ 18.8 µM) | 128 µg/mL (≈ 75.3 µM) | 32 µg/mL (≈ 18.8 µM) | 32 µg/mL (≈ 18.8 µM) | 8 µg/mL (≈ 4.71 µM) | 16 µg/mL (≈ 9.42 µM) | – |
| CCCCCCCC(=O)N[C@@H](CCCCN)C(=O)N[C@@H](CCCNC(=N)N)C(=O)N[C@H](C(=O)N[C@H](C(=O)N[C@@H](CCC(N)=O)C(=O)N[C@@H](CCCNC(=N)N)C(=O)N[C@H](C(=O)N[C@@H](CCCCN)C(=O)N[C@@H](CC(=O)O)C(=O)N[C@@H](Cc1ccccc1)C(=O)N[C@@H](CC(C)C)C(=O)N[C@@H](CCCNC(=N)N)C(N)=O)[C@@H](C)CC)C(C)C)[C@@H](C)CC [II, C8^α-KR12-NH2] (Octanoyl-KRIVQRIKDFLR-NH2) | 64 µg/mL | 16 µg/mL (≈ 9.43 µM) | 4 µg/mL (≈ 2.36 µM) | 4 µg/mL (≈ 2.36 µM) | 8 µg/mL (≈ 4.71 µM) | 8 µg/mL (≈ 4.71 µM) | 4 µg/mL (≈ 2.36 µM) | 4 µg/mL (≈ 2.36 µM) | 4 µg/mL (≈ 2.36 µM) | 2 µg/mL (≈ 1.18 µM) | 4 µg/mL (≈ 2.36 µM) | – |
| CCCC(=O)NCCCC[C@H](NC(=O)CCC)C(=O)N[C@@H](CCCNC(=N)N)C(=O)N[C@H](C(=O)N[C@H](C(=O)N[C@@H](CCC(N)=O)C(=O)N[C@@H](CCCNC(=N)N)C(=O)N[C@H](C(=O)N[C@@H](CCCCN)C(=O)N[C@@H](CC(=O)O)C(=O)N[C@@H](Cc1ccccc1)C(=O)N[C@@H](CC(C)C)C(=O)N[C@@H](CCCNC(=N)N)C(N)=O)[C@@H](C)CC)C(C)C)[C@@H](C)CC [X, C4^α, C4^ε-KR12-NH2] (Butyryl-K(Butyryl)RIVQRIKDFLR-NH2) | – | >512 µg/mL | 256 µg/mL (≈ 150 µM) | 32 µg/mL (≈ 18.7 µM) | 512 µg/mL (≈ 299 µM) | 128 µg/mL (≈ 74.8 µM) | 128 µg/mL (≈ 74.8 µM) | 512 µg/mL (≈ 299 µM) | 512 µg/mL (≈ 299 µM) | 32 µg/mL (≈ 18.7 µM) | 256 µg/mL (≈ 150 µM) | Hemolytic effect over the studied concentration range ([5]; hRBCs, concentration range up to 512 µg/mL, significant = >5% hemolysis): did not induce any significant hemolysis (>5%) |
